Reference: PubChem BioAssay AID1919004 (Molecular Pharmacology Branch, DTP, NCI, 2023)
Each block holds one compound with its values, some of them ahead of it.

System: 883617-216-R-J1-PDC complex spheroids, growth, % test/control
Experiment: Anticancer human tumor 883617-216-R-J1-PDC patient-derived bladder carcinoma cell line growth inhibition [AhR]
Conditions: for IC50: curve of first compound; for viability, T/C: stronger effect = lower value
Description: Multicellular complex tumor spheroid response to aryl hydrocarbon receptor antagonists in combination with a variety of drugs and investigational agents in selected tumor cell lines
The current study was undertaken to assess response to aryl hydrocarbon receptor antagonists in combination with standard-of-care drugs and investigational agents in solid tumor complex spheroid models. Complex spheroids include a stromal component modeled by human endothelial cells (HUVEC) and fibroblasts modeled by human mesenchymal stem cells (MSCs). The concentration ranges selected for each drug and investigational agent were based upon clinically achievable concentrations if the clinical Cmax of the agent was known.
Compounds. The drugs and investigational agents: BAY 2416964 (NSC825713), GNF351 (NSC835774), CH-223191 (NSC835775), CPI-455 (NSC825282), aza-TdCyd (NSC777586), decitabine (NSC127716), belinostat (NSC758774), entinostat (NSC756642), pevonedistat (NSC761192), tazemetostat (NSC777109), talazoparib (NSC765396), olaparib (NSC753686), selinexor (NSC780203), nedisertib (M3814, NSC802822), bortezomib (NSC756655), venetoclax (NSC766270), doxorubicin (NSC123127), elimusertib (BAY189344, NSC800525), ceralasertib (AZD6738, NSC777638), TAK-243 (NSC785004), alisertib (NSC759677), etoposide (NSC141540), topotecan (NSC609699), eribulin (NSC707389), gemcitabine (NSC613327), carboplatin (NSC241240), cisplatin (NSC119875), and SN-38 (NSC673596) were obtained from the National Cancer Institute (NCI) Developmental Therapeutics Program Chemical Repository (32). The FDA-approved anticancer drug set is available from the Developmental Therapeutics Program at https://dtp.cancer.gov/organization/dscb/obtaining/available plates.htm. […] The stock solutions were prepared in dimethyl sulfoxide (DMSO, Sigma-Aldrich, St. Louis, MO, cat. D2650), except for the platinum compounds which were prepared in saline (Quality Biological, Gaithersburg, MD, cat. 114-055-101), at 800-fold the tested concentration and stored at -70 degrees C prior to their use. All drugs and investigational agents were tested over a range starting from a high concentration at or near the clinical Cmax and decreasing in half-log increments. If the clinical Cmax for an agent had not been determined, the highest concentration tested was 10 microM (Table 1).
Cell Culture. All cells were maintained in an incubator at 37 degrees C and 5% CO2 with 95% humidity. The PDC lines were cultured according to standard operating procedures established by the NCI PDMR (https://pdmr.cancer.gov). Briefly, all PDCs were thawed and cultured in Matrigel-coated flasks prepared with a working solution of 1X Ham's F-12 nutrient mix, without supplementation (Invitrogen, Waltham, MA, cat. 11765054), 100 U/mL penicillin-streptomycin (Invitrogen, cat. 15140122), and 2.5% Matrigel (Corning Inc., Corning, NY, cat. 354248) for the first three passages. All PDCs were cultured in complete DMEM/F-12 media containing advanced DMEM/F-12 (Invitrogen, cat. 12634028), 4.9% defined fetal bovine serum, heat inactivated (HyClone Laboratories Inc., Logan, UT, cat. SH30070.03HI), 389 ng/mL hydrocortisone (Sigma-Aldrich, cat. H4001), 9.7 ng/mL human EGF recombinant protein (Invitrogen, cat. PHG0313), 23.4 microg/mL adenine (Sigma-Aldrich, cat. A2786), 97.3 U/mL penicillin-streptomycin (Invitrogen, cat. 15140122), 1.9 mM L-glutamine (Invitrogen, cat. 25030081), and 9.7 microM Y-27632 dihydrochloride (Tocris Bioscience, Bristol, United Kingdom, cat. 1254). The PDCs were cultured in complete DMEM/F12 media without 10 microM Y-27632 dihydrochloride for at least two passages prior to the screen. The established cell lines NCI-H1341 and […] were cultured in DMEM/F-12, HEPES (Invitrogen, cat. 11330032), 5% defined fetal bovine serum (HyClone Laboratories Inc., cat. SH30070.03), ITS premix universal culture supplement [insulin (5 microg/mL), transferrin (5 microg/mL), and selenious acid (5 ng/mL)] […]

[1] = second compound 0.1 µM, first compound 0.0316 µM
[2] = second compound 0.1 µM, first compound 0.1 µM
[3] = second compound 0.1 µM, first compound 0.316 µM
[4] = second compound 0.1 µM, first compound 1 µM
[5] = second compound 0.1 µM, first compound 3.16 µM
[6] = second compound 0.1 µM, first compound 10 µM
[7] = second compound 0.316 µM, first compound 0.0316 µM
[8] = second compound 0.316 µM, first compound 0.1 µM
[9] = second compound 0.316 µM, first compound 0.316 µM
[10] = second compound 0.316 µM, first compound 1 µM
[11] = second compound 0.316 µM, first compound 3.16 µM
[12] = second compound 0.316 µM, first compound 10 µM
[13] = second compound 1 µM, first compound 0.0316 µM
[14] = second compound 1 µM, first compound 0.1 µM
[15] = second compound 1 µM, first compound 0.316 µM
[16] = second compound 1 µM, first compound 1 µM
[17] = second compound 1 µM, first compound 3.16 µM
[18] = second compound 1 µM, first compound 10 µM
[19] = second compound 3.16 µM, first compound 0.0316 µM
[20] = second compound 3.16 µM, first compound 0.1 µM
[21] = second compound 3.16 µM, first compound 0.316 µM
[22] = second compound 3.16 µM, first compound 1 µM
[23] = second compound 3.16 µM, first compound 3.16 µM
[24] = second compound 3.16 µM, first compound 10 µM
[25] = second compound 10 µM, first compound 0.0316 µM
[26] = second compound 10 µM, first compound 0.1 µM
[27] = second compound 10 µM, first compound 0.316 µM
[28] = second compound 10 µM, first compound 1 µM
[29] = second compound 10 µM, first compound 3.16 µM
[30] = second compound 10 µM, first compound 10 µM
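Further: exposure lasted 7 days after dosing on day 3 of spheroid growth.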

IC50 (second compound 0.1 µM): 2650 nM
IC50 (second compound 0.316 µM): 2400 nM
IC50 (second compound 1 µM): 4070 nM
IC50 (second compound 3.16 µM): 3530 nM
IC50 (second compound 10 µM): < 31.6 nM
SMILES: COc1ccc([C@@H](O)c2cc(-c3ncnc4cc(N5CCOCC5)ccc34)c(F)cc2Cl)nn1 + Cc1cncc(-c2nc(NCCc3c[nH]c4ccccc34)c3ncn(C(C)C)c3n2)c1
viability, T/C [1]: 89.8%
viability, T/C [2]: 82.6%
viability, T/C [3]: 78.2%
viability, T/C [4]: 67.5%
viability, T/C [5]: 45.5%
viability, T/C [6]: 34.1%
viability, T/C [7]: 93.6%
viability, T/C [8]: 103%
viability, T/C [9]: 87.9%
viability, T/C [10]: 67.1%
viability, T/C [11]: 45.6%
viability, T/C [12]: 35.3%
viability, T/C [13]: 100%
viability, T/C [14]: 95.4%
viability, T/C [15]: 85.9%
viability, T/C [16]: 76.7%
viability, T/C [17]: 50.7%
viability, T/C [18]: 39.3%
viability, T/C [19]: 103%
viability, T/C [20]: 102%
viability, T/C [21]: 94.9%
viability, T/C [22]: 79.9%
viability, T/C [23]: 51.4%
viability, T/C [24]: 33.3%
viability, T/C [25]: 39.6%
viability, T/C [26]: 39.3%
viability, T/C [27]: 38.9%
viability, T/C [28]: 30.4%
viability, T/C [29]: 19.2%
viability, T/C [30]: 10.9%

IC50 (second compound 0.1 µM): > 1000 nM
IC50 (second compound 0.316 µM): > 1000 nM
IC50 (second compound 1 µM): > 1000 nM
IC50 (second compound 3.16 µM): > 1000 nM
IC50 (second compound 10 µM): > 1000 nM
SMILES: Nc1ncn(C2CC(O)C(CO)O2)c(=O)n1 (stereo not given) + Cc1ccccc1N=Nc1ccc(NC(=O)c2ccnn2C)c(C)c1
viability, T/C (second compound 0.1 µM, first compound 0.00316 µM): 89.3%
viability, T/C (second compound 0.1 µM, first compound 0.01 µM): 94.7%
viability, T/C [1]: 83.6%
viability, T/C [2]: 82.8%
viability, T/C [3]: 75.5%
viability, T/C [4]: 73.1%
viability, T/C (second compound 0.316 µM, first compound 0.00316 µM): 82.9%
viability, T/C (second compound 0.316 µM, first compound 0.01 µM): 83.5%
viability, T/C [7]: 87.8%
viability, T/C [8]: 80.1%
viability, T/C [9]: 78.8%
viability, T/C [10]: 76.6%
viability, T/C (second compound 1 µM, first compound 0.00316 µM): 79.9%
viability, T/C (second compound 1 µM, first compound 0.01 µM): 88.1%
viability, T/C [13]: 101%
viability, T/C [14]: 77.9%
viability, T/C [15]: 67.6%
viability, T/C [16]: 77.1%
viability, T/C (second compound 3.16 µM, first compound 0.00316 µM): 71.1%
viability, T/C (second compound 3.16 µM, first compound 0.01 µM): 84.2%
viability, T/C [19]: 75.8%
viability, T/C [20]: 72.8%
viability, T/C [21]: 79.6%
viability, T/C [22]: 81.2%
viability, T/C (second compound 10 µM, first compound 0.00316 µM): 84.7%
viability, T/C (second compound 10 µM, first compound 0.01 µM): 79.2%
viability, T/C [25]: 74.3%
viability, T/C [26]: 77.7%
viability, T/C [27]: 74.2%
viability, T/C [28]: 77.9%

IC50 (second compound 0.1 µM): > 10000 nM
IC50 (second compound 0.316 µM): > 10000 nM
IC50 (second compound 1 µM): > 10000 nM
IC50 (second compound 3.16 µM): > 10000 nM
IC50 (second compound 10 µM): > 10000 nM
SMILES: CC1(C)CCC(CN2CCN(c3ccc(C(=O)NS(=O)(=O)c4ccc(NCC5CCOCC5)c([N+](=O)[O-])c4)c(Oc4cnc5[nH]ccc5c4)c3)CC2)=C(c2ccc(Cl)cc2)C1 + Cc1ccccc1N=Nc1ccc(NC(=O)c2ccnn2C)c(C)c1
viability, T/C [1]: 97.5%
viability, T/C [2]: 90.6%
viability, T/C [3]: 97%
viability, T/C [4]: 99.9%
viability, T/C [5]: 88.5%
viability, T/C [6]: 61.4%
viability, T/C [7]: 95.5%
viability, T/C [8]: 85.9%
viability, T/C [9]: 88.9%
viability, T/C [10]: 85.3%
viability, T/C [11]: 83.9%
viability, T/C [12]: 54.9%
viability, T/C [13]: 97.8%
viability, T/C [14]: 85.4%
viability, T/C [15]: 82.5%
viability, T/C [16]: 80.2%
viability, T/C [17]: 79.7%
viability, T/C [18]: 67.1%
viability, T/C [19]: 85.7%
viability, T/C [20]: 82.6%
viability, T/C [21]: 87.4%
viability, T/C [22]: 84.8%
viability, T/C [23]: 76.5%
viability, T/C [24]: 57%
viability, T/C [25]: 81.9%
viability, T/C [26]: 85.1%
viability, T/C [27]: 82%
viability, T/C [28]: 77%
viability, T/C [29]: 74%
viability, T/C [30]: 54.7%

IC50 (second compound 0.1 µM): 1740 nM
IC50 (second compound 0.316 µM): 1660 nM
IC50 (second compound 1 µM): 1960 nM
IC50 (second compound 3.16 µM): 1900 nM
IC50 (second compound 10 µM): < 31.6 nM
SMILES: O=C(C=Cc1cccc(S(=O)(=O)Nc2ccccc2)c1)NO + Cc1cncc(-c2nc(NCCc3c[nH]c4ccccc34)c3ncn(C(C)C)c3n2)c1
viability, T/C [1]: 92.5%
viability, T/C [2]: 93.9%
viability, T/C [3]: 83%
viability, T/C [4]: 60.6%
viability, T/C [5]: 37%
viability, T/C [6]: 3.56%
viability, T/C [7]: 88.5%
viability, T/C [8]: 86.4%
viability, T/C [9]: 84.4%
viability, T/C [10]: 60.3%
viability, T/C [11]: 34.5%
viability, T/C [12]: 4.17%
viability, T/C [13]: 97.1%
viability, T/C [14]: 101%
viability, T/C [15]: 96.4%
viability, T/C [16]: 63.5%
viability, T/C [17]: 39.1%
viability, T/C [18]: 2.44%
viability, T/C [19]: 123%
viability, T/C [20]: 114%
viability, T/C [21]: 94.8%
viability, T/C [22]: 69.8%
viability, T/C [23]: 34.6%
viability, T/C [24]: 2.66%
viability, T/C [25]: 52.4%
viability, T/C [26]: 43.2%
viability, T/C [27]: 34.7%
viability, T/C [28]: 42.7%
viability, T/C [29]: 22%
viability, T/C [30]: 1.42%
